Assay results as given in ChEMBL document CHEMBL1145925, “Carbonic anhydrase inhibitors: inhibition of transmembrane, tumor-associated isozyme IX, and cytosolic isozymes I and II with aliphatic sulfamates” (J Med Chem, 2003).
Several values for one entry are separate records, joined by “and”; a condition that tells them apart may be missing. Identical values can stand only once.

The compounds below were run against Carbonic anhydrase 9 (Homo sapiens, UniProt Q16790).

Structure (SMILES) | Ki
C#CCCOS(N)(=O)=O | 0.633 µM
NS(=O)(=O)OCC1c2ccccc2-c2ccccc21 | > 1 µM
NS(=O)(=O)OCC(F)(F)F | 0.458 µM
Cc1ccc(COS(N)(=O)=O)cc1 | 0.013 µM
NS(=O)(=O)OCCCCl | > 1 µM
C[C@]12CCC(OS(N)(=O)=O)CC1=C[C@@H](O)C1C2CC[C@]2(C)C(=O)CCC12 (stereo partly specified) | 0.065 µM
C=CCCOS(N)(=O)=O | 0.386 µM
CC(C)CCC[C@@H](C)[C@H]1CCC2C3CC=C4C[C@@H](OS(N)(=O)=O)CC[C@]4(C)C3CCC21 (stereo partly specified) | > 1 µM
NS(=O)(=O)OC(C(F)(F)F)C(F)(F)F | 0.279 µM
NS(=O)(=O)OCc1ccc(-c2ccccc2)cc1 | > 1 µM
C[C@]12CCC(OS(N)(=O)=O)CC1=CC(=O)C1C2CC[C@]2(C)C(=O)CCC12 (stereo partly specified) | 0.076 µM
CCCCCCCCCCOS(N)(=O)=O [DECYL SULFAMATE] | 0.023 µM and 0.142 µM
NS(=O)(=O)OCc1ccccc1 [SULFAMIC ACID BENZYL ESTER] | 0.014 µM
CCCCOS(N)(=O)=O [SULFAMIC ACID BUTYL ESTER] | > 1 µM
NS(=O)(=O)OC1CCCCC1 [SULFAMIC ACID CYCLOHEXYL ESTER] | > 1 µM
NS(=O)(=O)OC1CCCC1 [SULFAMIC ACID CYCLOPENTYL ESTER] | > 1 µM
CCCCCCCCCCCCOS(N)(=O)=O [SULFAMIC ACID DODECYL ESTER] | 0.009 µM
CCOS(N)(=O)=O [SULFAMIC ACID ETHYL ESTER] | > 1 µM
CC(C)OS(N)(=O)=O [SULFAMIC ACID ISOPROPYL ESTER] | > 1 µM
COS(N)(=O)=O [SULFAMIC ACID METHYL ESTER] | > 1 µM
CCCCCCCCCCCCCCCCCCOS(N)(=O)=O [SULFAMIC ACID OCTADECYL ESTER] | 0.12 µM
NS(=O)(=O)OCCc1ccccc1 [SULFAMIC ACID PHENETHYL ESTER] | 0.012 µM
CCCOS(N)(=O)=O [SULFAMIC ACID PROPYL ESTER] | > 1 µM
CCCCCCCCCCCCCCOS(N)(=O)=O [SULFAMIC ACID TETRADECYL ESTER] | 0.015 µM
CCCCCCCCCCCOS(N)(=O)=O [SULFAMIC ACID UNDECYL ESTER] | 0.017 µM

These compounds were tested against Carbonic anhydrase 1 (Homo sapiens, UniProt P00915).
Sequence of Carbonic anhydrase 1 (P00915 whole entry): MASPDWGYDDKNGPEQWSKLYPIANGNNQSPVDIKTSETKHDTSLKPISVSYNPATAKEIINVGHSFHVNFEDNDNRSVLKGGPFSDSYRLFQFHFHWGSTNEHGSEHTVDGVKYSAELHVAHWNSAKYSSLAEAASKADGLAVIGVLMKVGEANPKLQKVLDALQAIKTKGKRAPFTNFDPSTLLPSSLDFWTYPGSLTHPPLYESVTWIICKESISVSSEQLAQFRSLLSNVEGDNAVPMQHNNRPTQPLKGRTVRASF

Structure (SMILES) | Ki [µM]
C#CCCOS(N)(=O)=O | 990
NS(=O)(=O)OCC1c2ccccc2-c2ccccc21 | 38
NS(=O)(=O)OCC(F)(F)F | 7.8
Cc1ccc(COS(N)(=O)=O)cc1 | 0.1
NS(=O)(=O)OCCCCl | 4.62
C[C@]12CCC(OS(N)(=O)=O)CC1=C[C@@H](O)C1C2CC[C@]2(C)C(=O)CCC12 (stereo partly specified) | 0.4
C=CCCOS(N)(=O)=O | 800
CC(C)CCC[C@@H](C)[C@H]1CCC2C3CC=C4C[C@@H](OS(N)(=O)=O)CC[C@]4(C)C3CCC21 (stereo partly specified) | > 1000
NS(=O)(=O)OC(C(F)(F)F)C(F)(F)F | 3.54
NS(=O)(=O)OCc1ccc(-c2ccccc2)cc1 | > 1000
C[C@]12CCC(OS(N)(=O)=O)CC1=CC(=O)C1C2CC[C@]2(C)C(=O)CCC12 (stereo partly specified) | 0.41
NS(=O)(=O)OCc1ccccc1 [SULFAMIC ACID BENZYL ESTER] | 0.76
CCCCOS(N)(=O)=O [SULFAMIC ACID BUTYL ESTER] | 3.1
NS(=O)(=O)OC1CCCCC1 [SULFAMIC ACID CYCLOHEXYL ESTER] | 59
NS(=O)(=O)OC1CCCC1 [SULFAMIC ACID CYCLOPENTYL ESTER] | > 1000
CCCCCCCCCCCCOS(N)(=O)=O [SULFAMIC ACID DODECYL ESTER] | 0.27
CCOS(N)(=O)=O [SULFAMIC ACID ETHYL ESTER] | 38
CCCCCCCCCCCCCCCCOS(N)(=O)=O [SULFAMIC ACID HEXADECYL ESTER] | 58
CC(C)OS(N)(=O)=O [SULFAMIC ACID ISOPROPYL ESTER] | 690
COS(N)(=O)=O [SULFAMIC ACID METHYL ESTER] | 40
CCCCCCCCCCCCCCCCCCOS(N)(=O)=O [SULFAMIC ACID OCTADECYL ESTER] | 65
CCCCCOS(N)(=O)=O [SULFAMIC ACID PENTYL ESTER] | 0.71
NS(=O)(=O)OCCc1ccccc1 [SULFAMIC ACID PHENETHYL ESTER] | 0.41
CCCOS(N)(=O)=O [SULFAMIC ACID PROPYL ESTER] | 3.7
CCCCCCCCCCCCCCOS(N)(=O)=O [SULFAMIC ACID TETRADECYL ESTER] | 0.15
CCCCCCCCCCCOS(N)(=O)=O [SULFAMIC ACID UNDECYL ESTER] | 0.43

What follows are compounds tested against Carbonic anhydrase 2 (Homo sapiens, UniProt P00918).

Structure (SMILES) | Ki [µM]
C#CCCOS(N)(=O)=O | 5.9
NS(=O)(=O)OCC1c2ccccc2-c2ccccc21 | 4.5
NS(=O)(=O)OCC(F)(F)F | 0.845
Cc1ccc(COS(N)(=O)=O)cc1 | 0.0027
NS(=O)(=O)OCCCCl | 0.57
C[C@]12CCC(OS(N)(=O)=O)CC1=C[C@@H](O)C1C2CC[C@]2(C)C(=O)CCC12 (stereo partly specified) | 0.013
C=CCCOS(N)(=O)=O | 0.883
CC(C)CCC[C@@H](C)[C@H]1CCC2C3CC=C4C[C@@H](OS(N)(=O)=O)CC[C@]4(C)C3CCC21 (stereo partly specified) | > 10
NS(=O)(=O)OC(C(F)(F)F)C(F)(F)F | 1.58
C[C@]12CCC(OS(N)(=O)=O)CC1=CC(=O)C1C2CC[C@]2(C)C(=O)CCC12 (stereo partly specified) | 0.023
NS(=O)(=O)OCc1ccccc1 [SULFAMIC ACID BENZYL ESTER] | 0.0034
CCCCOS(N)(=O)=O [SULFAMIC ACID BUTYL ESTER] | 0.07
NS(=O)(=O)OC1CCCCC1 [SULFAMIC ACID CYCLOHEXYL ESTER] | 0.06
NS(=O)(=O)OC1CCCC1 [SULFAMIC ACID CYCLOPENTYL ESTER] | > 10
CCCCCCCCCCCCOS(N)(=O)=O [SULFAMIC ACID DODECYL ESTER] | 0.01
CCOS(N)(=O)=O [SULFAMIC ACID ETHYL ESTER] | 5.5
CCCCCCCCCCCCCCCCOS(N)(=O)=O [SULFAMIC ACID HEXADECYL ESTER] | 0.097
CC(C)OS(N)(=O)=O [SULFAMIC ACID ISOPROPYL ESTER] | > 10
COS(N)(=O)=O [SULFAMIC ACID METHYL ESTER] | 6
CCCCCCCCCCCCCCCCCCOS(N)(=O)=O [SULFAMIC ACID OCTADECYL ESTER] | 0.129
CCCCCOS(N)(=O)=O [SULFAMIC ACID PENTYL ESTER] | 0.058
NS(=O)(=O)OCCc1ccccc1 [SULFAMIC ACID PHENETHYL ESTER] | 0.0011
CCCOS(N)(=O)=O [SULFAMIC ACID PROPYL ESTER] | 0.75
CCCCCCCCCCCCCCOS(N)(=O)=O [SULFAMIC ACID TETRADECYL ESTER] | 0.087
CCCCCCCCCCCOS(N)(=O)=O [SULFAMIC ACID UNDECYL ESTER] | 0.0047
